From paper PMC9127186, “Molecular Basis Underlying Hepatobiliary and Renal Excretion of Phenolic Acids of Salvia miltiorrhiza Roots (Danshen)” (Frontiers in Pharmacology, 2022)

How the values were obtained:
[1] = molecular target: T1, human OATP2B1 (Homo sapiens, UniProt O94956); details: 10 min, 100 μM
T1 sequence (O94956 1-709): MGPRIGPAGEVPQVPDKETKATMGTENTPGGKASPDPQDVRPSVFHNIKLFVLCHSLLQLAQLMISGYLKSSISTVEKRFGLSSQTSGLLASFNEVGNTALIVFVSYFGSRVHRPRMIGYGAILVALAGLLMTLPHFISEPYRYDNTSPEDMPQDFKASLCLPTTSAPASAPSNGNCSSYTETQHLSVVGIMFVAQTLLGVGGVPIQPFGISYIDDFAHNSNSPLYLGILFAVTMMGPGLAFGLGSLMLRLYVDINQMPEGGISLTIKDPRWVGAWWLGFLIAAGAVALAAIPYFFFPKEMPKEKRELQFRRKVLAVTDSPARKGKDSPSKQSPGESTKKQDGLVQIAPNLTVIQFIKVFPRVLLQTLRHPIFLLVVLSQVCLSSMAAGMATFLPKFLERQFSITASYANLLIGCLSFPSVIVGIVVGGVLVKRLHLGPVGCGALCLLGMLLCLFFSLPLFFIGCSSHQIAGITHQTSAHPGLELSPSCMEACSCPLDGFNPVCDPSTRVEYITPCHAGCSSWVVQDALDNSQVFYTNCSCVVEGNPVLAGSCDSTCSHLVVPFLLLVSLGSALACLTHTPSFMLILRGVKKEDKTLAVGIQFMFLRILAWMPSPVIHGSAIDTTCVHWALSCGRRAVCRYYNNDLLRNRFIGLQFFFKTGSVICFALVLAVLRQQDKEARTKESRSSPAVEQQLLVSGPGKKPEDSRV

[2] = molecular target: T2, rat Pept1 (Rattus norvegicus, UniProt P51574); details: 10 min, 100 μM, pH 6
T2 sequence (P51574 1-710): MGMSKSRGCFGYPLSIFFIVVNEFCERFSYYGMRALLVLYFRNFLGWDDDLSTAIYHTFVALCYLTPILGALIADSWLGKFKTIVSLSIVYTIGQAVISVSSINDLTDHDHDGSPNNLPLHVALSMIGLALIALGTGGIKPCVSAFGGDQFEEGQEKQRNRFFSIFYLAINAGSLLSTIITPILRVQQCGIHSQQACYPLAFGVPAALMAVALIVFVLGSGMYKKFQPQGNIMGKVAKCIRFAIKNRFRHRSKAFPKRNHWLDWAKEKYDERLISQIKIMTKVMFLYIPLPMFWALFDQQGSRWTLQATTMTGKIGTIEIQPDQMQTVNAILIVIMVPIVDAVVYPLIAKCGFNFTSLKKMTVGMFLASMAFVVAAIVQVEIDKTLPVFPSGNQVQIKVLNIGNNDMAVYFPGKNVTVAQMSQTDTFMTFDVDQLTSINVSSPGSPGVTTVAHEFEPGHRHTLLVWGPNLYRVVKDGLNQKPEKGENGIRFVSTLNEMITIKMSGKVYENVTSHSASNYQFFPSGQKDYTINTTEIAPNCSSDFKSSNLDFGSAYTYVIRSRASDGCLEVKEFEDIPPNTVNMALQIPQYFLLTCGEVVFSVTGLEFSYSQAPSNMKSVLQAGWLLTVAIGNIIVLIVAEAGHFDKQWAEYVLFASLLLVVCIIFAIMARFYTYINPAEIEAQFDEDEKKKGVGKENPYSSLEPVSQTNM

[3] = molecular target: T3, human OCT1 (Homo sapiens, UniProt O15245); details: 10 min, 100 μM
T3 sequence (O15245 1-554): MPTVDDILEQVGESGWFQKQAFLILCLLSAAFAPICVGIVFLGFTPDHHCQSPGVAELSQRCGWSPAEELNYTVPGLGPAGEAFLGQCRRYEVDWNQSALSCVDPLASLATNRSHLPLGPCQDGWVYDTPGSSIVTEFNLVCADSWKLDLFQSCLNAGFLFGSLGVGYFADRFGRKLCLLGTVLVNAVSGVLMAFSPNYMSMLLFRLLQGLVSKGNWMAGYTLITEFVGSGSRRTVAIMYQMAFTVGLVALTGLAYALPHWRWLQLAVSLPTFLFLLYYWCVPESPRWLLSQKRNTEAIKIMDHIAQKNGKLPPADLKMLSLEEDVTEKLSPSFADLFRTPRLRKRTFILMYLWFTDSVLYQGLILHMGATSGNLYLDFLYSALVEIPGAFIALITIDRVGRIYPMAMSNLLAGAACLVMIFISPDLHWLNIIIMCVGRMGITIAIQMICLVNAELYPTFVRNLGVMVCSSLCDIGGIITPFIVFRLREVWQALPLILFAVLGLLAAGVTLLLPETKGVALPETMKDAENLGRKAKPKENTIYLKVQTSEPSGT

[4] = molecular target: T4, rat Pept2 (Rattus norvegicus, UniProt Q63424); details: 10 min, 100 μM, pH 6
T4 sequence (Q63424 1-729): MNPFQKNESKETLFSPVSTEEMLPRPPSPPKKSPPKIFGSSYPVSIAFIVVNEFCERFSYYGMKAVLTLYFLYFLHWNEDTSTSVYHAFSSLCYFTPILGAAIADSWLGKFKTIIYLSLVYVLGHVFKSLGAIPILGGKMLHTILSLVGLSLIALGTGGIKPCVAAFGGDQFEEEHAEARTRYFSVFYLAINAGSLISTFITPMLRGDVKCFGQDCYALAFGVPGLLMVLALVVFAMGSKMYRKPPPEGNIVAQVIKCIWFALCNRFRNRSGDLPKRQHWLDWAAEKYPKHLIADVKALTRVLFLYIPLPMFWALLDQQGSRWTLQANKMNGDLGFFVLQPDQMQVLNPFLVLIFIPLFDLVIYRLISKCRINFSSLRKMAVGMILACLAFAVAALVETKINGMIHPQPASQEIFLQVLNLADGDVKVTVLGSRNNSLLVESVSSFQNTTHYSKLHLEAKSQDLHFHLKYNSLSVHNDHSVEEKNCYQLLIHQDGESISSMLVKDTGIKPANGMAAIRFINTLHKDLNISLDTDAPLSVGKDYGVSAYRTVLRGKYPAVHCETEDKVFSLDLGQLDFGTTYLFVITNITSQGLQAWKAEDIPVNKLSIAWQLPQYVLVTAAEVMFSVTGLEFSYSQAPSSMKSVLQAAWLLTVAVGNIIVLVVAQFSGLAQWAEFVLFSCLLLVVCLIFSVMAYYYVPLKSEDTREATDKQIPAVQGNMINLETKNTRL

Row | SMILES | TransportTC/TransportMC ratio (net transport ratio) [1] | TransportTC/TransportMC ratio (net transport ratio) [2] | TransportTC/TransportMC ratio (net transport ratio) [3] | TransportTC/TransportMC ratio (net transport ratio) [4]
1 | O=C(/C=C/c1ccc(O)c(O)c1)O[C@H](Cc1ccc(O)c(O)c1)C(=O)O [Rosmarinic acid, rosmarinic acid] | 1.69 ± 0.71 | 1.14 ± 0.13 | 1.46 ± 0.57 | 0.84 ± 0.17
2 | O=C(/C=C/c1ccc(O)c(O)c1/C=C/c1ccc(O)c(O)c1)O[C@H](Cc1ccc(O)c(O)c1)C(=O)O [Salvianolic acid A, salvianolic acid A] | 2.45 ± 0.34 | 1.32 ± 0.13 | 1.04 ± 0.32 | 0.84 ± 0.19
